In brackets after ≈: the same amount, converted by molar mass.
Experiments:
[1] = Apparent permeability across MDCK cells; format: ADME, cell-based, Canis lupus familiaris; details: dog
physchem [2] = details: PBS buffer, pH 7.4, Kinetic_solubility
[3] = target: Dual specificity protein kinase CLK2 (Homo sapiens) (UniProt P49760); assay: Inhibition of CLK2 (unknown origin) at 0.1 uM
[4] = Cmax in Sprague-Dawley rat at 5 mg/kg, po by LC-MS/MS analysis; format: ADME, organism-based; design: dose 5 mg/kg, route oral; details: in vivo
[5] = Oral bioavailability in beagle dog at 5 mg/kg by LC-MS/MS analysis; format: ADME, organism-based, Canis lupus familiaris; details: in vivo
[6] = AUC in Sprague-Dawley rat at 5 mg/kg, po by LC-MS/MS analysis; format: ADME, organism-based; design: dose 5 mg/kg, route oral; details: plasma
[7] = AUC in BALB/c mouse at 50 mg/kg, po by LC-MS/MS analysis; format: ADME, organism-based; design: dose 50 mg/kg, route oral; details: plasma
[8] = AUC in beagle dog at 5 mg/kg, po by LC-MS/MS analysis; format: ADME, organism-based, Canis lupus familiaris; design: dose 5 mg/kg, route oral; details: plasma
[9] = Half life in beagle dog at 1 mg/kg, iv by LC-MS/MS analysis; format: ADME, organism-based, Canis lupus familiaris; design: dose 1 mg/kg, route intravenous; details: in vivo
[10] = Volume of distribution at steady state in Sprague-Dawley rat at 1 mg/kg, iv by LC-MS/MS analysis; format: ADME, organism-based; design: dose 1 mg/kg, route intravenous; details: in vivo, read-out: Vdss
[11] = Clearance in beagle dog at 1 mg/kg, iv by LC-MS/MS analysis; format: ADME, organism-based, Canis lupus familiaris; design: dose 1 mg/kg, route intravenous; details: in vivo
[12] = Half life in Sprague-Dawley rat at 1 mg/kg, iv by LC-MS/MS analysis; format: ADME, organism-based; design: dose 1 mg/kg, route intravenous; details: in vivo
[13] = AUC in beagle dog at 1 mg/kg, iv by LC-MS/MS analysis; format: ADME, organism-based, Canis lupus familiaris; design: dose 1 mg/kg, route intravenous; details: plasma
[14] = Volume of distribution at steady state in BALB/c mouse at 1 mg/kg, iv by LC-MS/MS analysis; format: ADME, organism-based; design: dose 1 mg/kg, route intravenous; details: in vivo, read-out: Vdss
[15] = target: High affinity nerve growth factor receptor (Homo sapiens) (UniProt P04629); assay: Inhibition of TRKA (unknown origin) at 0.1 uM
High affinity nerve growth factor receptor (Homo sapiens), sequence (P04629 33-796 limits assumed): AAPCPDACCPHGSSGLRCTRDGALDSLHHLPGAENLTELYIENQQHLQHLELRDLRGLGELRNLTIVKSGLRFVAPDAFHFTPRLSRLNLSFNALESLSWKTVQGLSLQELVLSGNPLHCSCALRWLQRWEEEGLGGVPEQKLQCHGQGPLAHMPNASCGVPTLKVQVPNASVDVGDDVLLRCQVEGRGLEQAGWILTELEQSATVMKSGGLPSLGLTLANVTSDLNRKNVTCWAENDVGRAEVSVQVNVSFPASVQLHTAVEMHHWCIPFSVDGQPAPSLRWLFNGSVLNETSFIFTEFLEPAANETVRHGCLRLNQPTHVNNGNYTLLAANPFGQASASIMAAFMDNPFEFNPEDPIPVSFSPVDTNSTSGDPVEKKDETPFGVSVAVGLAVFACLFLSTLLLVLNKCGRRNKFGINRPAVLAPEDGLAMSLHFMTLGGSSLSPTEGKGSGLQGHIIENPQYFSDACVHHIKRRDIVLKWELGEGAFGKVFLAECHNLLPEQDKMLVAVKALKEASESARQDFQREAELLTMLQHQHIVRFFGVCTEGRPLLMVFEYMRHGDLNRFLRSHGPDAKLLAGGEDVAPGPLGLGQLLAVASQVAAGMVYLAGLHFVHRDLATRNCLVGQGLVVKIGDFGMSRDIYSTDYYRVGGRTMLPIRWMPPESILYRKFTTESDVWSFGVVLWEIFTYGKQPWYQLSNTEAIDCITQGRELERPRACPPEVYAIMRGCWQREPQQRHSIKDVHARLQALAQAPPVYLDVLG

[16] = Plasma protein binding in human; format: ADME, cell-free; details: read-out: PPB (converted)
[17] = target: NT-3 growth factor receptor (Homo sapiens) (UniProt Q16288); assay: Inhibition of TRKC (unknown origin) at 0.1 uM
NT-3 growth factor receptor (Homo sapiens), sequence (Q16288 32-839 limits assumed): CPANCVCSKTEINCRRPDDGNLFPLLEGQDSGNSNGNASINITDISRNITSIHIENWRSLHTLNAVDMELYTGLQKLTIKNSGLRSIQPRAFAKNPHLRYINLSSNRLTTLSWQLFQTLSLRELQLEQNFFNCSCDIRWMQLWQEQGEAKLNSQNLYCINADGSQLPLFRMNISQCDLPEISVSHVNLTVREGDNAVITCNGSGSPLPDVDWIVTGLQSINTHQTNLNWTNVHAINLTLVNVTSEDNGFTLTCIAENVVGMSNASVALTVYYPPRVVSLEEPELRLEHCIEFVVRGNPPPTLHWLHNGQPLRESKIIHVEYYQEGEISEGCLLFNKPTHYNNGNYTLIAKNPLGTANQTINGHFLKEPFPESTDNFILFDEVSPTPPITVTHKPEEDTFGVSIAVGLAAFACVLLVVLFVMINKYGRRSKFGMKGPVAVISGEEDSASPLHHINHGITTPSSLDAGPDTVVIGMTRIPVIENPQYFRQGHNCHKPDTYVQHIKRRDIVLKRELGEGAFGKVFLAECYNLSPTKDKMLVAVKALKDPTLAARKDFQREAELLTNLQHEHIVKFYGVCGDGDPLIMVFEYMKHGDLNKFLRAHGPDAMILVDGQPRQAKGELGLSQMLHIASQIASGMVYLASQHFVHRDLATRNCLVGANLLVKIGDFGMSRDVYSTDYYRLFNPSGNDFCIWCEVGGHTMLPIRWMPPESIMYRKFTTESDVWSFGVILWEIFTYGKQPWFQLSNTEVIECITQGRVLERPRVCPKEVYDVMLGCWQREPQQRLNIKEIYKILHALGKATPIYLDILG

[18] = Clearance in Sprague-Dawley rat at 1 mg/kg, iv by LC-MS/MS analysis; format: ADME, organism-based; design: dose 1 mg/kg, route intravenous; details: in vivo
[19] = Clearance in BALB/c mouse at 1 mg/kg, iv by LC-MS/MS analysis; format: ADME, organism-based; design: dose 1 mg/kg, route intravenous; details: in vivo
[20] = Cmax in BALB/c mouse at 50 mg/kg, po by LC-MS/MS analysis; format: ADME, organism-based; design: dose 50 mg/kg, route oral; details: in vivo
physchem [21] = details: 1-octanol/phosphate buffer, pH 7.4, logD
[22] = AUC in Sprague-Dawley rat at 1 mg/kg, iv by LC-MS/MS analysis; format: ADME, organism-based; design: dose 1 mg/kg, route intravenous; details: plasma
[23] = target: BDNF/NT-3 growth factors receptor (Homo sapiens) (UniProt Q16620); assay: Inhibition of TRKB (unknown origin) at 0.1 uM
BDNF/NT-3 growth factors receptor (Homo sapiens), sequence (Q16620 32-822 limits assumed): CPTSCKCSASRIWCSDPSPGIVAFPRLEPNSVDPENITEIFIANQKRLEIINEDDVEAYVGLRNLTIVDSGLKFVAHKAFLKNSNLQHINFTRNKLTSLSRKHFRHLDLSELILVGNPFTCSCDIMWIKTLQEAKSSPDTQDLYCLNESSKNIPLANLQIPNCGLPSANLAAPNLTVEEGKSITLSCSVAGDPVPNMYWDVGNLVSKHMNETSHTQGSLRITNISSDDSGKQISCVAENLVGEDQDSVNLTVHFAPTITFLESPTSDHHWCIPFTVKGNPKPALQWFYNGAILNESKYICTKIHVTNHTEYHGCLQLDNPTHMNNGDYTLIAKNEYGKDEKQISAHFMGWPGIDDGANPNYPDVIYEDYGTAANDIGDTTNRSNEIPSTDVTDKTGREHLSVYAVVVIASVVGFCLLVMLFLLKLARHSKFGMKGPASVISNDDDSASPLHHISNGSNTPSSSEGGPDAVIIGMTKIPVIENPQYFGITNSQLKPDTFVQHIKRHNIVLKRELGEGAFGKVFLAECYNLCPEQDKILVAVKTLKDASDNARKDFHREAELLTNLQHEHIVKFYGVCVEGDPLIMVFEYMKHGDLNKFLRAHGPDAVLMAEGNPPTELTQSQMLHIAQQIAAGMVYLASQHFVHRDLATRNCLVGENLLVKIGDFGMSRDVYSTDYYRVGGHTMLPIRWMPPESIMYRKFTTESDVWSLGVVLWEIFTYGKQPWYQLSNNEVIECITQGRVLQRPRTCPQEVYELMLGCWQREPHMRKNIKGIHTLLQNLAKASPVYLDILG

[24] = Volume of distribution at steady state in beagle dog at 1 mg/kg, iv by LC-MS/MS analysis; format: ADME, organism-based, Canis lupus familiaris; design: dose 1 mg/kg, route intravenous; details: in vivo
[25] = Oral bioavailability in BALB/c mouse at 50 mg/kg by LC-MS/MS analysis; format: ADME, organism-based; details: in vivo
[26] = system: T1, Receptor-type tyrosine-protein kinase FLT3 (Homo sapiens), P36888 [D835Y]; assay: Inhibition of FLT3 D835Y mutant (unknown origin) at 0.1 uM
T1 sequence (whole entry): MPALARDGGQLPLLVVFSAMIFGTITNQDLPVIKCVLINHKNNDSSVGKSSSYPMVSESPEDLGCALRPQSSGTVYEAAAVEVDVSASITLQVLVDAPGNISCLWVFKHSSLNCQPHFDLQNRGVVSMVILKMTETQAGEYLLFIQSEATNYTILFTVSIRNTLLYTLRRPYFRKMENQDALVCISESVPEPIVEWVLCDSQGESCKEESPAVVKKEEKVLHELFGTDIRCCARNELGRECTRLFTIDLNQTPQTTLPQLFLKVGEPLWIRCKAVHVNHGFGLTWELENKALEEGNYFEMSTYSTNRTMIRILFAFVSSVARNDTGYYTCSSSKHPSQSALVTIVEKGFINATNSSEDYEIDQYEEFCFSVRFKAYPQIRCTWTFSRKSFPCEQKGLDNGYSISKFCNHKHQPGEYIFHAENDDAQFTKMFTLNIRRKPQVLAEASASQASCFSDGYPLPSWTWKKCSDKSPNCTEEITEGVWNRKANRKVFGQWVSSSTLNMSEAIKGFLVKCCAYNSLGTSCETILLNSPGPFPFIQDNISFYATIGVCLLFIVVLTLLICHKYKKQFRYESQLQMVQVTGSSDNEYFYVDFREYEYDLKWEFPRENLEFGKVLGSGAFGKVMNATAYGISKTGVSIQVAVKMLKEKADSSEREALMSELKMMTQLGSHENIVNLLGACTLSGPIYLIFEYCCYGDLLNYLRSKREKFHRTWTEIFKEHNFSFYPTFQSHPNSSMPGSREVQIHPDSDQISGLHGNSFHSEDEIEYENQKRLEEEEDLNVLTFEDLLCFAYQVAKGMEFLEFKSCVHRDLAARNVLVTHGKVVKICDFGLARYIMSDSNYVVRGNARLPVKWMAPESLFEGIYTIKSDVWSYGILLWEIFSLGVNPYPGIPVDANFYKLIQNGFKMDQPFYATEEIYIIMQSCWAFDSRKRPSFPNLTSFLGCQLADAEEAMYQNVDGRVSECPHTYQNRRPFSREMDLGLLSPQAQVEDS

[27] = AUC in BALB/c mouse at 1 mg/kg, iv by LC-MS/MS analysis; format: ADME, organism-based; design: dose 1 mg/kg, route intravenous; details: plasma
[28] = target: Receptor-type tyrosine-protein kinase FLT3 (Homo sapiens) (UniProt P36888); assay: Inhibition of FLT3 (unknown origin) at 0.1 uM
[29] = Half life in BALB/c mouse at 1 mg/kg, iv by LC-MS/MS analysis; format: ADME, organism-based; design: dose 1 mg/kg, route intravenous; details: in vivo
[30] = Cmax in beagle dog at 5 mg/kg, po by LC-MS/MS analysis; format: ADME, organism-based, Canis lupus familiaris; design: dose 5 mg/kg, route oral; details: in vivo
[31] = Oral bioavailability in Sprague-Dawley rat at 5 mg/kg by LC-MS/MS analysis; format: ADME, organism-based; details: in vivo

Dual specificity protein kinase CLK2 (Homo sapiens), sequence (P49760 whole entry, looked up): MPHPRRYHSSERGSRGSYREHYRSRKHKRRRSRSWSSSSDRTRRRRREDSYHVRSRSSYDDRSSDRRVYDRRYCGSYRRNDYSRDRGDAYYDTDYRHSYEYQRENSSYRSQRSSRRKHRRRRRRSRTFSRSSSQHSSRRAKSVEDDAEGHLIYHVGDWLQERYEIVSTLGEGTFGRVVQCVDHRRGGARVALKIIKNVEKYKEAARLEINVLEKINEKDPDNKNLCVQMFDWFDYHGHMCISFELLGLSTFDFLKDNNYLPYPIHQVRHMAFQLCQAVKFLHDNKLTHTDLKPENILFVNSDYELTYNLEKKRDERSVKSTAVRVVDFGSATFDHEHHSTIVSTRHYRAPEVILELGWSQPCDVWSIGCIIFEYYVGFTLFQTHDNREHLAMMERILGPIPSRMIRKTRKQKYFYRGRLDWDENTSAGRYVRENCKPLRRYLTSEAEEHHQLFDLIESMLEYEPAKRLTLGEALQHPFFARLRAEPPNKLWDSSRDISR

- Papp [1]: 4.6 ×10⁻⁶ cm/s
- solubility kinetic at 24 h, 10000 µM (physchem [2]): 68 µM (≈ 28.6 µg/mL)
- inhibition [3]: 93%
- Cmax [4]: 200 nM
- bioavailability [5]: 100%
- AUC [6]: 1.1 µM·h
- AUC [7]: 27 µM·h
- AUC [8]: 10 µM·h
- half-life [9]: 324 min
- Vd [10]: 14 L/kg
- clearance [11]: 21 mL/min/kg
- half-life [12]: 180 min
- AUC [13]: 1.9 µM·h
- Vd [14]: 10 L/kg
- inhibition [15]: 80%
- fraction unbound [16]: 0.07
- inhibition [17]: 88%
- clearance [18]: 70 mL/min/kg
- clearance [19]: 40 mL/min/kg
- Cmax [20]: 3.8 µM
- logD at 20 min, 10000 µM (physchem [21]): 2
- AUC [22]: 0.6 µM·h
- inhibition [23]: 91%
- Vd [24]: 6.7 L/kg
- bioavailability [25]: 36%
- inhibition [26]: 75%
- AUC [27]: 1.5 µM·h
- inhibition [28]: 76%
- half-life [29]: 174 min
- Cmax [30]: 900 nM
- bioavailability [31]: 40%
SMILES: CN(C)CC[C@@H](c1ccccc1)n1cc(NC(=O)c2n[nH]c3c2CCC(C)(C)C3)cn1

From ChEMBL document CHEMBL3297697, “Property- and structure-guided discovery of a tetrahydroindazole series of interleukin-2 inducible T-cell kinase inhibitors” (J Med Chem, 2014)
